From ChEMBL document CHEMBL1158943, “Chemistry of Sponges, XI. 22-Deoxyvariabilin, a New Sesterterpene from the Sponge Thorecta sp” (J Nat Prod, 1991)
Active and inactive are the calls of the source.

How the values were obtained:
Format in all cases: functional, organism-based
[1] = tested on: Candida albicans; test: Antimicrobial activity against Candida albicans at 100 ug/disk by standard disk method
[2] = tested on: Bacillus subtilis; test: Antimicrobial activity against Bacillus subtilis at 50 ug/disk by standard disk method
[3] = tested on: Staphylococcus aureus; test: Antimicrobial activity against Staphylococcus aureus at 100 ug/disk by standard disk method

Measured: Activity

CC1=C/C(=C/[C@@H](C)CCC/C(C)=C/CC/C(C)=C/CCc2ccoc2)OC1=O
active: all assays above
